Source: paper PMC11855827, “High-Throughput Screening of Five Compound Libraries for Anthelmintic Activity and Toxicity Leads to the Discovery of Two Flavonoid Compounds” (International Journal of Molecular Sciences, 2025)
Where two headings read alike, the source gives them in different places.

Test system: C. elegans
[1] = Table S2, C. elegans SS assay, 110 μM, 0 h, averages of 4 data points
[2] = Table S2, C. elegans SS assay, 110 μM, 24 h, averages of 4 data points

Structure (SMILES)	Percentage of motility inhibition 0 h [1]	Percentage of motility inhibition 24 h [2]	Percentage of motility inhibition 0 h (110 µM)	Percentage of motility inhibition 24 h (110 µM)
COC(=O)C1=CO[C@@H](O[C@@H]2O[C@H](CO[C@@H]3O[C@H](CO)[C@@H](O)[C@H](O)[C@H]3O)[C@@H](O)[C@H](O)[C@H]2O)[C@@H]2C(CO)=CC[C@H]12 [Genipin 1-β-D-gentiobioside]	0%	17%		
CC(C)=C1C/C=C(\C)CC/C=C(\C)CC1=O [Germacrone]	12%	9%		
CC1=C2[C@@H](OC1=O)[C@H](O)[C@]13[C@H]4C[C@@H](C(C)(C)C)[C@]15[C@@H](OC(=O)[C@@H]5O)O[C@@]23C(=O)O4 [Ginkgolide K]	0%	2%		
CC(C)=CCC[C@](C)(O[C@@H]1O[C@H](CO)[C@@H](O)[C@H](O)[C@H]1O)[C@H]1CC[C@]2(C)[C@@H]1[C@H](O)C[C@@H]1[C@@]3(C)CC[C@H](O)C(C)(C)[C@@H]3CC[C@]12C [Ginsenoside C-K]	4%	22%		
CC(C)=CCC[C@](C)(O[C@@H]1O[C@H](CO[C@@H]2OC[C@H](O[C@@H]3OC[C@@H](O)[C@H](O)[C@H]3O)[C@H](O)[C@H]2O)[C@@H](O)[C@H](O)[C@H]1O)[C@H]1CC[C@]2(C)[C@@H]1[C@H](O)C[C@@H]1[C@@]3(C)CC[C@H](O[C@@H]4O[C@H](CO)[C@@H](O)[C@H](O)[C@H]4O[C@@H]4O[C@H](CO)[C@@H](O)[C@H](O)[C@H]4O)C(C)(C)[C@@H]3CC[C@]12C [Ginsenoside Ra1]	0%	0%		
C=C(CCC=C(C)C)[C@H]1CC[C@]2(C)[C@@H]1[C@H](O)C[C@@H]1[C@@]3(C)CC[C@H](O)C(C)(C)[C@@H]3[C@@H](O[C@@H]3O[C@H](CO)[C@@H](O)[C@H](O)[C@H]3O[C@@H]3O[C@@H](C)[C@H](O)[C@@H](O)[C@H]3O)C[C@]12C [Ginsenoside Rg6]	1%	4%		
C=C(CCC=C(C)C)[C@H]1CC[C@]2(C)[C@@H]1[C@H](O)C[C@@H]1[C@@]3(C)CC[C@H](O[C@@H]4O[C@H](CO)[C@@H](O)[C@H](O)[C@H]4O[C@@H]4O[C@H](CO)[C@@H](O)[C@H](O)[C@H]4O)C(C)(C)[C@@H]3CC[C@]12C [Ginsenoside Rk1]	4%	0%		
C=C(CCC=C(C)C)[C@H]1CC[C@]2(C)[C@@H]1[C@H](O)C[C@@H]1[C@@]3(C)CC[C@H](O)C(C)(C)[C@@H]3[C@@H](O[C@@H]3O[C@H](CO)[C@@H](O)[C@H](O)[C@H]3O)C[C@]12C [Ginsenoside Rk3]	0%	19%		
CC1(C)CC[C@]2(C(=O)O[C@@H]3O[C@H](CO)[C@@H](O)[C@H](O)[C@H]3O)CC[C@]3(C)C(=CC[C@@H]4[C@@]5(C)CC[C@H](O[C@@H]6O[C@H](C(=O)O)[C@@H](O)[C@H](O)[C@H]6O[C@@H]6O[C@H](CO)[C@@H](O)[C@H](O)[C@H]6O)C(C)(C)[C@@H]5CC[C@]43C)[C@@H]2C1 [Ginsenoside Ro]	1%	0%		
O=C([O-])[C@H](O)[C@@H](O)[C@H](O)[C@H](O)CO.[Na+] [Gluconate (sodium)]	15%	3%		
C[S+]([O-])CCCC/C(=N\OS(=O)(=O)O)S[C@@H]1O[C@H](CO)[C@@H](O)[C@H](O)[C@H]1O (stereo partly shown) [Glucoraphanin]	12%	0%		
NCC(=O)O [Glycine]			32%	13%
COc1cc2c(=O)c(-c3ccc(O)cc3)coc2cc1O[C@@H]1O[C@H](CO)[C@@H](O)[C@H](O)[C@H]1O [Glycitin]	30%	4%		
C[C@H](CCC(=O)NCC(=O)[O-])[C@H]1CC[C@H]2[C@@H]3[C@H](O)C[C@@H]4C[C@H](O)CC[C@]4(C)[C@H]3C[C@H](O)[C@]12C.[Na+] [Glycocholic acid (sodium)]	0%	0%		
O=C(O)CO [Glycolic acid]	5%	6%		
C[C@H](CCC(=O)NCC(=O)O)[C@H]1CC[C@H]2[C@@H]3CC[C@@H]4C[C@H](OS(=O)(=O)O)CC[C@]4(C)[C@H]3CC[C@]12C [Glycolithocholic acid 3-sulfate]	13%	33%		
CC1(C)[C@@H](O[C@@H]2O[C@H](C(=O)O)[C@@H](O)[C@H](O)[C@H]2O)CC[C@]2(C)[C@H]3C(=O)C=C4[C@@H]5C[C@@](C)(C(=O)O)CC[C@]5(C)CC[C@@]4(C)[C@]3(C)CC[C@@H]12 [Glycyrrhetic acid 3-O-β-D-glucuronide]	2%	22%		
CC(=O)O.Cc1cc2c(C(C)C)c(O)c(O)c(C=O)c2c(O)c1-c1c(C)cc2c(C(C)C)c(O)c(O)c(C=O)c2c1O [Gossypol (acetic acid)]	0%	7%		
COc1cc2c(cc1O)CC[n+]1cc3c4c(ccc3cc1-2)OCO4 [Groenlandicine]	0%	0%		
O=c1c(O[C@@H]2OC[C@H](O)[C@H](O)[C@H]2O)c(-c2ccc(O)c(O)c2)oc2cc(O)cc(O)c12 [Guaijaverin]	0%	25%		
C=C1CC23CC4[C@@H]5[C@@]6(C)C[C@H](OC(C)=O)C[C@]57C(N4C6)[C@@]2(O)C(OC(C)=O)[C@H]1[C@@H](O)[C@H]37 (stereo partly shown) [Guanfu base A]	0%	0%		
COC(=O)C1=CCCNC1.Cl [Guvacoline (hydrochloride)]	0%	0%		
CC1(C)C[C@H]2C3=CC[C@@H]4[C@@]5(C)CC[C@H](O)[C@@](C)(CO)[C@@H]5CC[C@@]4(C)[C@]3(C)C[C@H](O)[C@@]2(CO)[C@@H](O)[C@@H]1O [Gymnemagenin]	0%	52%		
C/C=C(\C)C(=O)O[C@H]1[C@H](O)[C@]2(COC(C)=O)[C@@H](O)C[C@]3(C)C(=CC[C@@H]4[C@@]5(C)CC[C@H](O[C@@H]6O[C@H](C(=O)O)[C@@H](O)[C@H](O)[C@H]6O)[C@@](C)(CO)[C@@H]5CC[C@]43C)[C@@H]2CC1(C)C [Gymnemic acid I]	20%	0%		
CC(C)=CC1CC(O)(C2CCC3(C)C2CCC2C4(C=O)CCC(OC5OCC(O)C(OC6OCC(O)C(O)C6O)C5OC5OC(C)C(O)C(O)C5O)C(C)(C)C4CCC23C)C(O)O1 (stereo not shown) [Gypenoside A]	0%	0%		
CC(C)=CCC[C@@](C)(O)[C@H]1CC[C@]2(C)[C@@H]1[C@H](O)C[C@@H]1[C@@]3(C)C[C@@H](O)[C@H](O[C@@H]4O[C@H](CO)[C@@H](O)[C@H](O)[C@H]4O[C@@H]4O[C@H](CO)[C@@H](O)[C@H](O)[C@H]4O)C(C)(C)[C@@H]3CC[C@]12C [Gypenoside LI]	0%	0%		
